Measured values reported in patent US20030050305A1, “Thromboxane inhibitors, compositions and methods of use” (priority 2000, published 2003).

Assays:
[1] = system: Human corpus cavernosum tissue; experiment: Relaxation of human corpus cavernosum tissue strips contracted with phenylephrine (organ chamber); details: for Relative potency in relaxing human corpus cavernosum tissue (FIG. 1B): after treatment with 0.02 μM SQ 29548; for Relaxation response in tissue from diabetic compared to non-diabetic patients (FIG. 4A, 4B): increasing concentrations of the prostaglandin alone
Method: (§1) Human corpus cavernosum specimens were obtained from impotent men at the time of penile prosthesis insertion. Tissues were maintained at 4-6° C. in M-400 solution, pH 7.4 (composition per 100 ml: mannitol, 4.19 g; KH2PO4, 0.205 g; K2HPO4.3H2O, 0.97 g; KCl, 0.112 g; NaHCO3, 0.084 g) until used. Corpus cavernosum tissues were typically used between 2 and 16 hours from extraction.
(§2) Measurement of the relaxation of corpus cavemosal tissue was carried out as follows. Corpus cavernosal tissue strips (3×3×7 mm) were immersed in a 8 ml organ chamber containing physiological salt solution, maintained at 37° C. and aerated with 5% CO2/95% air, pH 7.4. The tissues were then contracted with phenylephrine (1 μM) and the relaxation response was evaluated after the cumulative addition of the compound to the organ chamber.
(§3) In experiments where the effect of the thromboxane A2 receptor antagonist, SQ 29548 , was measured, […] was added 20 minutes before the addition of phenylephrine. In experiments where the effect of the thromboxane A2 agonist, U 46619 was measured, U 46619 was added after the phenylephrine-induced contractions stabilized, and then prostaglandin PGE1 was added 10 minutes later, if required.
The data are expressed as mean i standard error of the percentage of total relaxation induced by 100 μM papaverine hydrochloride. Statistical analysis were conducted using a two-factor ANOVA statistical analysis using StatView software for Apple computers.

[2] = system: Human corpus cavernosum resistance arteries (helicine arteries); experiment: Relaxation of human corpus cavernosum resistance arteries contracted with norepinephrine (myograph); details: SQ 29548 0.02 μM; increasing concentrations of acetylcholine; contracted with 1 μM norepinephrine; P<0.01
Method: Human corpus cavernosum tissues were prepared according to Example 1. Penile small arteries, helicine arteries (lumen diameter 150-400 μ), which are the terminal branches of deep penile arteries, were dissected by carefully removing the adhering trabecular tissue. Arterial ring segments (2 mm long) were subsequently mounted on two 40 μm wires on microvascular double Halpern-Mulvany myographs (J. P. Trading, Aarhus, Denmark) for isometric tension recordings.
Measurement of the relaxation of corpus cavernosal resistant arteries was carried out as follows. […]
The segments were then exposed to 125 mM K^+ (physiological salt solution potassium salt form, by the equimolar substitution of […] in physiological salt solution) and the contraction response was measured. The arteries were contracted with 1 μM norepinephrine and relaxation responses were evaluated by cumulative additions of the acetylcholine (1 nM to 3 μ) to the organ chamber. The segments were washed with fress physiological salt solution, treated with the thromboxane inhibitor SQ 29548 (0.02 μM) and the response to acetylcholine measured again.

[3] = system: Human corpus cavernosum tissue; experiment: Contractile response of human corpus cavernosum tissue from diabetic and non-diabetic patients to U 46619; details: tissue from diabetic vs non-diabetic patients; P<0.01
Method: as §1, §2, §3
The tissues were prepared according to Example 1. […]

[4] = contracted with 1 μM phenylephrine

CCCCC[C@H](O)CC[C@H]1[C@H](O)CC(=O)[C@@H]1CCCCCCC(=O)O [PGE0]
Relative potency in relaxing human corpus cavernosum tissue (FIG. 1B) [1, 4]: equipotent | Response of the tissue to increasing concentrations of the prostaglandin alone (FIG. 1A) ([1]; higher concentrations of PGE0, absence of SQ 29548, contracted with 1 μM phenylephrine): significant contraction of the tissue | Relaxation response in tissue from hypertensive compared to non-hypertensive patients (FIG. 7) ([1]; increasing concentrations of PGE0, contracted with 1 μM phenylephrine, P<0.01): significant reduction in the relaxation of the tissue from hypertensive patients | Relaxation response in tissue from diabetic compared to non-diabetic patients (FIG. 4A, 4B) [1, 4]: significant reduction in the relaxation of the tissue from diabetic patients

CCCCC[C@H](O)/C=C/[C@H]1[C@H](O)CC(=O)[C@@H]1CCCCCCC(=O)O [PGE1, alprostadil]
Relative potency in relaxing human corpus cavernosum tissue (FIG. 1B) [1, 4]: equipotent | Relaxation response in tissue from diabetic compared to non-diabetic patients (FIG. 4A, 4B) [1, 4]: no difference in the relaxation response

O=C(O)CCC/C=C\C[C@@H]1[C@H](CNNC(=O)Nc2ccccc2)[C@H]2CC[C@@H]1O2 [SQ 29548]
Effect of the thromboxane A2 receptor antagonist on the relaxation induced by PGE0 (FIG. 2) ([1]; SQ 29548 0.02 μM, added 20 minutes before phenylephrine, increasing concentrations of PGE0, P<0.01): significant relaxation of the tissue | Effect on the reduced relaxation to PGE0 of tissue from diabetic patients (FIG. 5) ([1]; addition of 0.02 μM SQ 29548, diabetic vs non-diabetic tissue): This reduction in the relaxation of the tissue was eliminated | Effect of the thromboxane A2 receptor antagonist on the relaxation induced by acetylcholine (FIG. 8) [2]: significant relaxation of the tissue

CCCCC[C@H](O)/C=C/[C@@H]1[C@@H](C/C=C\CCCC(=O)O)[C@H]2CO[C@@H]1C2 [U 46619]
Effect of the thromboxane A2 receptor agonist on the relaxation induced by PGE1 (FIG. 3) ([1]; U 46619 0.003 μM, increasing concentrations of prostaglandin, P<0.01): significant contraction of the tissue | Contraction response induced by increasing concentrations of the thromboxane agonist (FIG. 6) [3]: significant contraction of the tissue obtained from diabetic patients
